# Measured values as given in US20130245110A1, “USE FOR CANNABINOIDS” (priority 2008, published 2013).
# “And” between values parts separate entries of the source, which are not always exact repeats. Identical values can stand only once.
# Legend:
# C57B1/6 ob/ob mouse [1] = assay: Thermic effect of a Complan meal: 3-hour energy expenditure; format: in vivo; parameters: unit not given here; conditions: ob/ob mice, day 17
# C57B1/6 ob/ob mouse [2] = assay: Fed plasma HDL-cholesterol; format: in vivo; conditions: ob/ob mice; for Fed HDL cholesterol day 28: individual values; for percentage HDL cholesterol day 28: HDL as percentage of total cholesterol
# Experimental: The following are a battery of tests used to elicit the effects of drugs on diseases including type I or II diabetes, obesity, dyslipidaemia, related metabolic disorders and cardiovascular disease. • a) Body weight: Bodyweights of all mice were measured twice weekly during the study. • b) Food intake: Food intake was measured by weight difference taking account of food wastage in the bottom of the cage. • c) Measurement of water consumption: Water intake was calculated daily for each animal, during the treatment period, by weight difference of the water bottle. • d) Oral Glucose Tolerance Test (OGTT): Glucose was dissolved in water (3 g/10 ml) and given to the mice orally at a rate of 3 g/kg. […] Blood samples were also taken at −30 minutes for insulin analysis. • e) Blood Glucose analysis: Duplicate 20 μl samples of blood of were taken for each individual sample and placed in a 96-well assay plate. To each well was added 180 μl aliquots of glucose oxidase reagent. Samples were mixed and then left for approximately 30 minutes. Samples were then analysed automatically using a SpectraMax-250 and SoftMax Pro software. • f) Plasma preparation: Blood was collected for the measurement of i) plasma insulin, ii) cholesterol, iii) free fatty acids or iv) triglyceride concentration. • i. Plasma insulin analysis: Plasma insulin was measured using 5 μl of plasma, compared with a mouse insulin standard using a 96-well micro-assay plate • ii. Plasma cholesterol analysis: To each sample was added 200 μl of infinity cholesterol liquid stable reagent. The samples were mixed and incubated for 5 minutes before reading at dual wavelengths of 500 and 660 nm. • iii. Plasma free fatty acids: 5 μl samples of plasma were measured into a 96-well assay plate, to which was added 0.2 ml of reagents NEFA C • iv. Plasma triglycerides analysis: To each well 200 μl aliquots of triglycerides reagent. […] Comparison with a calibrated standard allowed identification of types of tissue by their density. Dedicated software was using to quantify amounts of bone and fat. The mice were lightly anaesthetised, sufficient to keep them quiescent during this non-invasive technique. • h) Energy expenditure measurements: Energy expenditure was measured by open circuit indirect calorimetry with mice in their home cages. For studies of 24 h energy expenditure, mice were dosed with their allocated treatment and then measurements commenced. […] Plasma leptin was measured in fed mice using the Crystal Chem Elisa assay. • j) Plasma adiponectin: Adiponectin exerts some of its weight reduction effects via the brain. This is similar to the action of leptin, but the two hormones perform complementary actions, and can have additive effects. Plasma adiponectin was measured in overnight fasted mice using the 96-well B-Bridge Elisa assay. • k) Plasma HDL-cholesterol: Plasma HDL-cholesterol was measured in fed mice using the kit from Trinity Biotech. • l) 24 h blood glucose profile: This was determined in order to ensure that changes in the diurnal control of blood glucose were detected. Thus blood samples were obtained at three hourly intervals throughout a continuous 24 h period. • m) Plasma haemoglobin AIC: Samples (10 μl) were analysed using the AIC. […] The homogenate was then extracted overnight at 4° C. and centrifuged at 2000 g for 5 min. • o) Pancreatic islet histology: […] sections were cut using a Leica RM2125 rotary microtome, transferred to positively-charged glass slides and dried overnight at 42° C. Morphology was assessed using hematoxylin and eosin staining. • p) Liver glycogen: After centrifugation (3000×g for 15 min), an aliquot of the supernatant (10 μl) is assayed using the glucose oxidase method. […] 1 ml of chloroform is added and tubes vortexed and left at 4° C. for 2 h with vortexing every 30 min. 200 μl of 0.9% sodium chloride is added and after thorough vortexing, the mixture is centrifuged at 300×g for 5 min.
# rat isolated aortae = assay: In vitro vascular studies by wire myography; conditions: for Time-dependent relaxation of pre-contracted aorta: 2 h (120 min)
# [3] = 3.0 mg·kg−1 daily oral gavage (combination: both 3.0)
# [4] = 0.3 mg·kg−1 daily oral gavage (combination: both 0.3)
structure (smiles),measurement,setting,value
"C=C(C)[C@@H]1CCC(C)=C[C@H]1c1c(O)cc(CCCCC)cc1O [CBD, cannabidiol]",Thermic effect of a meal: 3-hour energy expenditure per animal,"C57B1/6 ob/ob mouse [1]; 3.0 mg/kg daily oral gavage (combination: both 3.0 mg/kg), listed as pure CBD",did not significantly increase energy expenditure
same,Fed HDL cholesterol day 28,C57B1/6 ob/ob mouse [2]; [3],increasing the amount and 3.31 and 3.00 and 3.36 and 3.63 and 2.98 and 3.38 and 3.18
same,Fed HDL cholesterol day 28,"C57B1/6 ob/ob mouse [2]; 3.0 mg·kg−1 daily oral gavage (combination: both 3.0), listed as Pure CBD",increasing the plasma HDL-cholesterol concentration
same,Potency and maximal contractile response to re-introduction of calcium,"rat isolated aortae; calcium free, high potassium Krebs-Hensleit solution, CBD from 1 μM to 30 μM",significantly reduced in a concentration-dependent manner
same,Vasorelaxant effect in arteries contracted with high potassium buffer,rat isolated aortae; compared with control,no difference
same,"Vasorelaxant effect, tone induced with U46619 in calcium free buffer",rat isolated aortae; compared with control,significantly blunted
same,Vasorelaxant effect in endothelium-denuded versus control aortae,rat isolated aortae; rat aorta,similar
same,Time-dependent relaxation of pre-contracted aorta,"rat isolated aortae; rat aorta, 10 μM",69.7±4.0 % relaxation
same,Residual relaxation (vasorelaxant effect minus effect of vehicle and time),"rat isolated aortae; rat aorta, 10 μM, after 2 h",50.1±3.3 % relaxation
same,Basal tension over time,"rat isolated aortae; rat aorta, 2 h",-0.03 ± 0.01 g
same,Time-dependent vascular responses in the presence of AM251,"rat isolated aortae; rat aorta, CB1 antagonist AM251 1 μM",did not significantly affect
same,Residual vasorelaxant effects in the presence of SR144528,"rat isolated aortae; rat aorta, CB2 antagonist SR144528 1 μM, between 45 min to 90 min",significantly inhibited
same,Residual vasorelaxant effect in the presence of L-NAME,"rat isolated aortae; rat aorta, L-NAME 300 μM, versus control conditions",not different
same,Residual vasorelaxant effect in the presence of GW9662,"rat isolated aortae; rat aorta, PPARγ antagonist GW9662 1 μM, after 1 h of incubation",significantly reduced
same,Vascular response over time after pre-treatment with PTX or capsaicin,"rat isolated aortae; rat arteries, PTX 200 ng ml−1, 2 h or capsaicin 10 μM, 1 h",no effect
"CCCc1cc(O)c2c(c1)OC(C)(C)[C@@H]1CCC(C)=C[C@@H]21 [THCV, tetrahydrocannabivarin]",Thermic effect of a meal: 3-hour energy expenditure per animal,C57B1/6 ob/ob mouse [1]; 0.3 mg/kg daily oral gavage (combination: both 0.3 mg/kg),8.18 and 7.04
same,Thermic effect of a meal: 3-hour energy expenditure per animal,C57B1/6 ob/ob mouse [1]; 3.0 mg/kg daily oral gavage (combination: both 3.0 mg/kg),8.94 and 8.79
same,Thermic effect of a meal: 3-hour energy expenditure per animal,"C57B1/6 ob/ob mouse [1]; 3.0 mg/kg daily oral gavage (combination: both 3.0 mg/kg), listed as pure THCV",significant effect
same,Fed HDL cholesterol day 28,C57B1/6 ob/ob mouse [2]; [4],2.16 (3×) and 2.35 and 2.33 and 2.21 and 2.25 and 2.14
same,Fed HDL cholesterol day 28,C57B1/6 ob/ob mouse [2]; [3],2.17 and 2.16 and 2.24 and 2.51 and 2.98 and 2.94 and 2.57 and 2.28
same,percentage HDL cholesterol day 28,C57B1/6 ob/ob mouse [2]; [4],30.4% and 25.1% and 33.6% and 39.3% and 37.5% and 34.3% and 37.9% and 38.0%
same,percentage HDL cholesterol day 28,C57B1/6 ob/ob mouse [2]; [3],34.5% and 31.1% and 34.0% and 40.4% and 41.3% and 45.6% and 33.6% and 32.4%
same,Time without effect on tone,"rat isolated aortae; pre-contracted aortae, 10 μM",> 105 min
same,Time-dependent relaxation of pre-contracted aorta,"rat isolated aortae; rat aorta, 10 μM",28.7±4.6 % relaxation
